# According to patent publication US8252832B2, “Kinesin inhibitors as cancer therapeutics” (Novartis AG, priority 2007, dated 2012):
# pIC50: −log10 of the molar value. Where two headings read alike, the source gives them in different places. Marks after values point to notes of the source that are not given here.
# How the values were obtained:
# KB8.5 tumor xenograft = KB8.5 tumor xenograft model (P-gp expressing), tumor response; type: in vivo, mouse; details: for ΔT/ΔC, Day 11 (%): q4d × 3
# Description: Cells were cultured for fewer than 10 passages prior to use. […] All data were expressed as mean and SEM. Between-groups comparisons for final tumor measurements were performed using the one-way ANOVA pair-wise analysis. Significance was determined using Kruskal-Wallis one-way ANOVA on Ranks, followed by appropriate post-hoc test (Dunn's Method or Tukey Test) for multiple pair-wise comparisons. Statistical analysis was carried out using SigmaStat (Systat Software Inc., San Jose, Calif.).
# [1] = for Survival (alive/total) / % Max. Δ body weight, (Day): q4d × 3
# Description: Experiments were performed using outbred athymic nu/nu mice (Charles River Laboratories) approximately 6-8 weeks old. Upon arrival, animals received a subcutaneous microchip implant (AVID, Folsom, La.) in the subscapular region for identification of individuals. Animals were allowed to acclimatize for 1 week before any experimental procedures began.
# Compound IIa, compound IIc, compound IIa (shown below), and SB-715992 were formulated in a Captisol®-based formulation. Doses were administered intravenously (i.v.) and adjusted to each animal's body weight. Formulations were made once at the beginning of study and stored at room temperature. Clinical grade paclitaxel was purchased pre-mixed in a cremophor-based vehicle (Mayne Pharma, now Hospira, Lake Forest, Ill., catalog #NDC-6170334209) and diluted in sterile saline to provide a dose volume of 16 mL/kg for a 30 mg/kg dose administered intraperitoneally (i.p.)
# For the efficacy studies, mice were enrolled with a mean tumor volume of approximately 300 mm^3. Tumor xenografts were measured in two dimensions (L and W) with digital calipers twice weekly from the start of dosing on Day 0. Tumor volume was calculated as (L×W^2)/2. Body weights were measured twice weekly and clinical observations were recorded daily. Tumor volume and body weights were captured and stored by StudyDirector software (StudyLog, South San Francisco, Calif.).
# [2] = target: T1, motor domain of human KSP (Eg 5, KNSL1) (Homo sapiens, UniProt P52732); assay: Assay for determining KSP activity (microtubule/KSP ATPase, Biomol Green); type: biochemical; details: read-out: In vitro activity (IC-50 - nm)
# T1 construct: KSP motor protein (i.e., the KSP motor domain); made in house
# T1 sequence (P52732 18-359 limits assumed): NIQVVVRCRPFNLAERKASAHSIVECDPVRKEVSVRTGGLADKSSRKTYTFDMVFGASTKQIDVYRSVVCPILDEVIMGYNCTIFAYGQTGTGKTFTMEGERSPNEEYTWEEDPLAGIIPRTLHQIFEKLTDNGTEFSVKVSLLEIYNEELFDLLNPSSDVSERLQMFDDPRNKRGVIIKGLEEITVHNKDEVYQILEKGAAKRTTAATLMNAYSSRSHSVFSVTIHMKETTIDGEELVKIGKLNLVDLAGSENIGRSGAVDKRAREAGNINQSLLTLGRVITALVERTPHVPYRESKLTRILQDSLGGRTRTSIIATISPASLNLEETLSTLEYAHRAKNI
# Description: Purified microtubules obtained from bovine brain were purchased from Cytoskeleton Inc. (Denver, Colo., USA). The motor domain of human KSP (Eg 5, KNSL1) was cloned, expressed, and purified to greater than 95% homogeneity. Biomol Green™ was purchased from Affinity Research Products Ltd. (Matford Court, Exeter, Devon, United Kingdom). Microtubules and KSP motor protein (i.e., the KSP motor domain) were diluted in assay buffer (20 mM Tris-HCl (pH 7.5), 1 mM MgCl2, 10 mM DTT and 0.25 mg/mL BSA) to a final concentration of 35 μg/mL microtubules and 45 nM KSP. The microtubule/KSP mixture was then pre-incubated at 37° C. for 10 min to promote the binding of KSP to microtubules.
# To each well of the testing plate (384-well plate) containing 1.25 μL of inhibitor or test compound in DMSO (or DMSO only, in the case of controls) were added 25 μL of ATP solution (ATP diluted to a concentration of 300 μM in assay buffer) and 25 μL of the above-described microtubule/KSP solution. The plates were incubated at RT for 1 hour. Following incubation, 65 μL of Biomol Green™ (a malachite green-based dye that detects the release of inorganic phosphate) was added to each well. The plates were incubated for an additional 5-10 minutes then the absorbance at 630 nm was determined using a Victor II plate reader. The amount of absorbance at 630 nm corresponded to the amount of KSP activity in the samples. The IC50 of each inhibitor or test compound was then determined based on the decrease in absorbance at 630 nm at each concentration, via nonlinear regression using either XLFit for Excel or Prism data analysis software by GraphPad Software Inc.
# [3] = In vivo pharmacokinetic parameters (clearance, half-life, AUC); details: for clearance: read-out: In vivo Clearance rate
# KB8.5 = assay: CellTiter-Glo proliferation, 72 hours; type: cell-based; details: Homo sapiens; Epidermoid, KB8.5, 72 hours
# KB3.1 = assay: CellTiter-Glo proliferation, 72 hours; type: cell-based; details: Homo sapiens, KB 3-1; Epidermoid, KB3.1, 72 hours
# Text: (§1) Cell lines used were as follows: HCT-116 (National Cancer Institute's DCTF Tumor Repository, catalog #NCI-502568, Rockville, Md.), HCT-15 (National Cancer Institute's DCTF Tumor Repository, catalog#NCI-502711, Rockville, Md. available from American Type Tissue Collection, catalog #CLL-225), KB-3-1 (available from DSMZ, Deutsche Sammlung von Mikroorganismen und Zellkulturen GmbH (German Collection of Microorganisms and Cell Cultures—catalog number ACC 158), KB-V1 (available from DSMZ—catalog number ACC 149), AGS (available from American Type Culture Collection, Manassas Va., catalog number CRL-1739™), N87 (available from American Type Culture Collection, Manassas Va., catalog number CRL-5822), Hel92.1.7 (available from American Type Culture Collection, Manassas Va., catalog number TIB 180), K562 (available from American Type Culture Collection, Manassas Va., catalog number CRL-243™), MV4; 11 (American Tissue Culture Collection, Manassas Va., catalog number CRL-9591) and U937 (available from American Type Culture Collection, Manassas Va., catalog number CRL-1593.2).
# (§2) Cells were plated in 96-well plates at densities of about 500 cells per well of a 96-well plate and allowed to grow for 24 hours. The cells were then treated with various concentrations of compounds for 72 hours. Then, 100 μl of CellTiter-Glo® reagent was added (Promega Corporation). CellTiter-Glo® is used in a homogeneous method of determining the number of viable cells using the single CellTiter-Glo® reagent to detect ATP (U.S. Pat. Nos. 6,602,677 and 7,241,584) (see Promega product catalog #G7570). Following the addition of the CellTiter-Glo® reagent, the cells were incubated in the dark for 30 minutes. The amount of luminescence was determined for each well using a Wallac Trilux plate reader, which correlates with the number of cells per well. The number of viable cells in the wells that receive only DMSO (0.5%) served as an indication of 0% inhibition, while wells without cells served as 100% inhibition of cell growth. […] This broad activity is consistent with a compound that is a mitotic inhibitor.
# HCT-15 = assay: CellTiter-Glo proliferation, 72 hours; type: cell-based; details: Homo sapiens; Colon, HCT-15, 72 hours
# Text: as §1, §2
structure (smiles),measurement,setting,value
C[C@H](O)C(=O)N(CC[C@H](N)CF)[C@@H](c1nc(-c2cc(F)ccc2F)cn1Cc1ccccc1)C(C)(C)C [Compound IIc],percent ΔT/ΔC,"KB8.5 tumor xenograft; 1.25 mg/kg, q4d×3, day 11",39%
same,"ΔT/ΔC, Day 11 (%)","KB8.5 tumor xenograft; Table 14 study, 1.25 mg/kg, i.v., KB8.5 xenograft, female nu/nu mice, p < 0.05 versus vehicle",39* %
same,body weight,[1]; 2.5 mg/kg treated group,significant weight loss
same,Survival (alive/total),"[1]; Table 14 study, 1.25 mg/kg, i.v.",9/9
same,"% Max. Δ body weight, (Day)","[1]; Table 14 study, 1.25 mg/kg, i.v., D11",−5 (D11) %
same,"% Max. Δ body weight, (Day)","[1]; Table 14 study, 2.5 mg/kg, i.v., D8",−10 (D8) %
same,Survival (alive/total),"[1]; Table 14 study, 2.5 mg/kg, i.v., due to 4/9 mice having 15% weight loss or more",All down on Day 8
same,pIC50,[2],9.05
same,AUC,[3],1700 ng·h/mL
same,half-life,[3],1.83 h
same,clearance,[3],47 mL/min/kg
COCC(=O)N(CC[C@H](N)CF)[C@@H](c1nc(-c2cc(F)ccc2F)cn1Cc1ccccc1)C(C)(C)C [Compound Ia],GI50,KB8.5,0.4 nM
same,efficacy in the KB8.5 tumor xenograft model,"KB8.5 tumor xenograft; 5 mg/kg, q4d×3",not efficacious
same,"ΔT/ΔC, Day 11 (%)","KB8.5 tumor xenograft; Table 15 study, 1.25 mg/kg, i.v., not statistically different from vehicle",84%
same,"ΔT/ΔC, Day 11 (%)","KB8.5 tumor xenograft; Table 15 study, 2.5 mg/kg, i.v., not statistically different from vehicle",61%
same,"ΔT/ΔC, Day 11 (%)","KB8.5 tumor xenograft; Table 15 study, 5 mg/kg, iv., not statistically different from vehicle",66%
same,Survival (alive/total),"[1]; Table 15 study, 1.25 mg/kg, i.v.",10/10
same,"% Max. Δ body weight, (Day)","[1]; Table 15 study, 1.25 mg/kg, i.v., D11",1 (D11) %
same,Survival (alive/total),"[1]; Table 15 study, 2.5 mg/kg, i.v.",10/10
same,"% Max. Δ body weight, (Day)","[1]; Table 15 study, 2.5 mg/kg, i.v., D4",−0.4 (D4) %
same,Survival (alive/total),"[1]; Table 15 study, 5 mg/kg, iv.",10/10
same,"% Max. Δ body weight, (Day)","[1]; Table 15 study, 5 mg/kg, iv., D4",−2 (D4) %
same,pIC50,[2],9.22
same,GI50,KB3.1,0.4 nM
same,GI50,HCT-15,0.3 nM
same,AUC,[3],2670 ng·h/mL
same,half-life,[3],1.95 h
same,clearance,[3],29 mL/min/kg
CC(=O)N(CC[C@H](N)CF)[C@@H](c1nc(-c2cc(F)ccc2F)cn1Cc1ccccc1)C(C)(C)C [Compound Ib],pIC50,[2],7.66
same,AUC,[3],867 ng·h/mL
same,half-life,[3],1.5 h
same,clearance,[3],94 mL/min/kg
